The values that follow come from patent US10208019B2, “GLP-1 receptor agonists and uses thereof” (Pfizer Inc., priority 2016, dated 2019).

As a reminder, the EC50 is the concentration giving half of the maximal effect. The term Emax denotes the greatest response seen or fitted, relative to the assay's reference.

Where two headings read alike, the source gives them in different places.

For assay [1], the target named is human GLP-1R (Homo sapiens (Human), UniProt P43220, L260F). As to the kind of experiment: CHO GLP-1R Clone C6—Assay 2: HTRF cAMP cell-based functional agonist assay (low GLP-1R density). The settings on record: for EC50: CHO GLP-1R Clone C6, cAMP HTRF, geometric mean; for Assay 2 Emax (%) / Emax: CHO GLP-1R Clone C6, relative to saturating concentration of full agonist GLP-1 (1 μM), arithmetic mean; for Emax: read-out: Assay 2 Emax (%). (In general: In TR-FRET formats the signal depends on donor and acceptor labels being close together.)

Assay [2] deals with human GLP-1R (Homo sapiens, UniProt P43220, G168S). Kind of assay: CHO GLP-1R Clone H6—Assay 1: HTRF cAMP cell-based functional agonist assay (high GLP-1R density). As to conditions: for Assay 1 Emax (%): CHO GLP-1R Clone H6; for Assay 1 Emax (%) / Emax: relative to saturating concentration of full agonist GLP-1 (1 μM), arithmetic mean; for EC50: CHO GLP-1R Clone H6, cAMP HTRF, geometric mean; for Emax: read-out: Assay 1 Emax (%), CHO GLP-1R Clone H6.
Chain of human GLP-1R (Homo sapiens, UniProt P43220, G168S) (P43220 24-463 G168S limits assumed): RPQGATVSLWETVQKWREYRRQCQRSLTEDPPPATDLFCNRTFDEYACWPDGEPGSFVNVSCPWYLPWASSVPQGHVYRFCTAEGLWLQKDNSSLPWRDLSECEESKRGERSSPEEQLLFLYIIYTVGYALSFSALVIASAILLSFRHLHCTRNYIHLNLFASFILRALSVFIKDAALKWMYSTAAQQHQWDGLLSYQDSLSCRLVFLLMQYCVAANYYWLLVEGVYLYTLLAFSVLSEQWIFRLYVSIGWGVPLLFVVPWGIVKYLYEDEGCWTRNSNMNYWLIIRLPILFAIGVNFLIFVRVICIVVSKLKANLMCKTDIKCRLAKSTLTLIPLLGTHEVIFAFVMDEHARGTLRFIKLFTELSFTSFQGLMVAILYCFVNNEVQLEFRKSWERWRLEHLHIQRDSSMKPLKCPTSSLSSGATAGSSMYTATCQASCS

Chain of human GLP-1R (Homo sapiens (Human), UniProt P43220, L260F) (P43220 24-463 L260F): as the sequence (P43220 24-463 G168S limits assumed) above, with S145G, L237F counted along it

Turning to `COCCn1c(CN2CC[C@@H](c3cccc(OCc4ccc(Cl)cc4F)n3)[C@H](F)C2)nc2ccc(C(=O)O)cc21` (racemic) [Example 1A-22, rac 2-{[(3S,4S)-4-{6-[(4-chloro-2-fluorobenzyl)oxy]pyridin-2-yl}-3-fluoropiperidin-1-yl]methyl}-1-(2-methoxyethyl)-1H-benzimidazole-6-carboxylic acid], on human GLP-1R [1], the EC50 turned out to be 400 nM and the “Assay 2 Emax (%)” value came to 86%. In addition, the “Assay 1 Emax (%)” value on human GLP-1R [2] is on record as 78%. Further, the EC50 at human GLP-1R [2] (read-out: Assay 1 EC50) amounted to 36 nM.

Regarding `COCCn1c(CN2CC[C@@H](c3cccc(OCc4ccc(Cl)cc4F)n3)[C@H](O)C2)nc2ccc(C(=O)O)cc21` (racemic) [Example 1A-23, rac-2-{[(3S,4S)-4-{6-[(4-chloro-2-fluorobenzyl)oxy]pyridin-2-yl}-3-hydroxypiperidin-1-yl]methyl}-1-(2-methoxyethyl)-1H-benzimidazole-6-carboxylic acid], the EC50 on human GLP-1R [1] turned out to be 1000 nM; on human GLP-1R [2] (Assay 1 EC50 (nM)) it was 50 nM. Also, the Emax came out at 98% at human GLP-1R [1] and 83% on human GLP-1R [2].

For `COCCn1c(CN2CC[C@@H](c3cccc(OCc4ccc(Cl)cc4F)n3)[C@@H](C)C2)nc2ccc(C(=O)O)cc21` (racemic) [Example 1A-25, rac-2-{[(3R,4R)-4-{6-[(4-chloro-2-fluorobenzyl)oxy]pyridin-2-yl}-3-methylpiperidin-1-yl]methyl}-1-(2-methoxyethyl)-1H-benzimidazole-6-carboxylic acid], the EC50 on human GLP-1R [1] was 1000 nM; on human GLP-1R [2] (Assay 1 EC50 (nM)), 45 nM. Moreover, the Emax on human GLP-1R [1] was found to be 84%; at human GLP-1R [2], 65%.

Consider `COCCn1c(CN2CC[C@@H](c3cccc(OCc4ccc(Cl)cc4F)n3)[C@H](C)C2)nc2ccc(C(=O)O)cc21` (racemic) [Example 1A-26, rac-2-{[(3S,4R)-4-{6-[(4-chloro-2-fluorobenzyl)oxy]pyridin-2-yl}-3-methylpiperidin-1-yl]methyl}-1-(2-methoxyethyl)-1H-benzimidazole-6-carboxylic acid], for which the EC50 was 1800 nM on human GLP-1R [1] and 70 nM at human GLP-1R [2] (Assay 1 EC50 (nM)). For the same compound, the values for the Emax on human GLP-1R [1] and on human GLP-1R [2] were 85% and 80%, respectively.

Consider `CO[C@H]1CCC[C@H]1Cn1c(CN2CCC(c3cccc(OCc4ccc(Cl)cc4F)n3)CC2)nc2ccc(C(=O)O)cc21` (racemic) [Example 1A-29, rac-2-[(4-{6-[(4-chloro-2-fluorobenzyl)oxy]pyridin-2-yl}piperidin-1-yl)methyl]-1-{[(1S,2S)-2-methoxycyclopentyl]methyl}-1H-benzimidazole-6-carboxylic acid], for which the EC50 at human GLP-1R [1] came out at 5600 nM; at human GLP-1R [2] (Assay 1 EC50 (nM)) it was 260 nM. The maximum response (Emax) on human GLP-1R [1] stood at 86%; on human GLP-1R [2], 88%.

Consider `COCCn1c(CN2CCC(c3cccc(OCc4ccc(Cl)cc4F)n3)CC2C)nc2ccc(C(=O)O)cc21` (single isomer, unassigned) [Example 13A-03, cis 2-{[4-{6-[(4-Chloro-2-fluorobenzyl)oxy]pyridin-2-yl}-2-methylpiperidin-1-yl]methyl}-1-(2-methoxyethyl)-1H-benzimidazole-6-carboxylic acid], for which the EC50 at human GLP-1R [1] was 120 nM; at human GLP-1R [2] (read-out: Assay 1 EC50) it was 5.2 nM. The Emax at human GLP-1R [1] is 80%. Also, the “Assay 1 Emax (%)” value on human GLP-1R [2] amounted to 66%.

`COCCn1c(CN2CCC(c3cccc(OCc4ccc(Cl)cc4F)n3)CC2C)nc2ccc(C(=O)O)cc21` (single isomer, unassigned) [Example 13A-04, cis 2-{[4-{6-[(4-Chloro-2-fluorobenzyl)oxy]pyridin-2-yl}-2-methylpiperidin-1-yl]methyl}-1-(2-methoxyethyl)-1H-benzimidazole-6-carboxylic acid]: at human GLP-1R [1], the EC50 came out at 1400 nM and the “Assay 2 Emax (%)” value worked out at 83%. The compound further returned a concentration giving a half-maximal response (EC50) at human GLP-1R [2] (Assay 1 EC50 (nM)) of 46 nM. For the same compound, at human GLP-1R [2], the “Assay 1 Emax (%)” value came to 66%.

`CC(c1cnn(C)n1)n1c(CN2CCC(c3cccc(OCc4ccc(Cl)cc4F)n3)CC2)nc2ccc(C(=O)O)cc21` (stereo not drawn) [Example 11A-60, 2-[(4-{6-[(4-chloro-2-fluorobenzyl)oxy]pyridin-2-yl}piperidin-1-yl)methyl]-1-[1-(2-methyl-2H-1,2,3-triazol-4-yl)ethyl]-1H-benzimidazole-6-carboxylic acid]: the EC50 on human GLP-1R [2] (read-out: Assay 1 EC50) stood at 1600 nM. The Emax at human GLP-1R [2] came to 80%.

Consider `Cc1ccc(Cn2c(CN3CCC(c4cccc(OCc5ccc(Cl)cc5F)n4)CC3)nc3ccc(C(=O)O)cc32)cn1` [Example 11A-61, 2-[(4-{6-[(4-chloro-2-fluorobenzyl)oxy]pyridin-2-yl}piperidin-1-yl)methyl]-1-[(6-methylpyridin-3-yl)methyl]-1H-benzimidazole-6-carboxylic acid], for which the EC50 at human GLP-1R [2] (read-out: Assay 1 EC50) was determined as 1900 nM. Besides, the Emax on human GLP-1R [2] stood at 79%.

For `COCc1cc(Cn2c(CN3CCC(c4cccc(OCc5ccc(Cl)cc5F)n4)CC3)nc3ccc(C(=O)O)cc32)[nH]n1` [Example 11A-62, 2-[(4-{6-[(4-chloro-2-fluorobenzyl)oxy]pyridin-2-yl}piperidin-1-yl)methyl]-1-{[3-(methoxymethyl)-1H-pyrazol-5-yl]methyl}-1H-benzimidazole-6-carboxylic acid], the EC50 on human GLP-1R [2] (read-out: Assay 1 EC50) came out at 2200 nM. Also, at human GLP-1R [2], the Emax is 87%.

Take `CN1CCOC(Cn2c(CN3CCC(c4cccc(OCc5ccc(Cl)cc5F)n4)CC3)nc3ccc(C(=O)O)cc32)C1` (stereo not drawn) [Example 11A-63, 2-[(4-{6-[(4-chloro-2-fluorobenzyl)oxy]pyridin-2-yl}piperidin-1-yl)methyl]-1-[(4-methylmorpholin-2-yl)methyl]-1H-benzimidazole-6-carboxylic acid]: at human GLP-1R [2] (read-out: Assay 1 EC50), the concentration for a half-maximal effect (EC50) worked out at 2500 nM. In addition, the maximum response (Emax) at human GLP-1R [2] was 71%.

Regarding `O=C(O)c1ccc2nc(CN3CCC(c4cccc(OCc5ccc(Cl)cc5F)n4)CC3)n(Cc3n[nH]c(C4CC4)n3)c2c1` [Example 11A-64, 2-[(4-{6-[(4-chloro-2-fluorobenzyl)oxy]pyridin-2-yl}piperidin-1-yl)methyl]-1-[(5-cyclopropyl-1H-1,2,4-triazol-3-yl)methyl]-1H-benzimidazole-6-carboxylic acid], the concentration for a half-maximal effect (EC50) at human GLP-1R [2] (read-out: Assay 1 EC50) amounted to 2900 nM. Moreover, at human GLP-1R [2], the maximal response (Emax) came out at 88%.

Take `O=C(O)c1ccc2nc(CN3CCC(c4cccc(OCc5ccc(Cl)cc5F)n4)CC3)n(CCC3CCOCC3)c2c1` [Example 11A-65, 2-[(4-{6-[(4-chloro-2-fluorobenzyl)oxy]pyridin-2-yl}piperidin-1-yl)methyl]-1-[2-(tetrahydro-2H-pyran-4-yl)ethyl]-1H-benzimidazole-6-carboxylic acid]: the EC50 on human GLP-1R [2] (read-out: Assay 1 EC50) came to 3100 nM. The Emax on human GLP-1R [2] was determined as 51%.

For `Cc1n[nH]c(CCn2c(CN3CCC(c4cccc(OCc5ccc(Cl)cc5F)n4)CC3)nc3ccc(C(=O)O)cc32)n1` [Example 11A-66, 2-[(4-{6-[(4-chloro-2-fluorobenzyl)oxy]pyridin-2-yl}piperidin-1-yl)methyl]-1-[2-(3-methyl-1H-1,2,4-triazol-5-yl)ethyl]-1H-benzimidazole-6-carboxylic acid], the EC50 at human GLP-1R [2] (read-out: Assay 1 EC50) came out at 4000 nM. On human GLP-1R [2], the Emax was 91%.

For `Cc1nc(C(C)n2c(CN3CCC(c4cccc(OCc5ccc(Cl)cc5F)n4)CC3)nc3ccc(C(=O)O)cc32)n[nH]1` (stereo not drawn) [Example 11A-67, 2-[(4-{6-[(4-chloro-2-fluorobenzyl)oxy]pyridin-2-yl}piperidin-1-yl)methyl]-1-[1-(5-methyl-1H-1,2,4-triazol-3-yl)ethyl]-1H-benzimidazole-6-carboxylic acid], the concentration giving a half-maximal response (EC50) at human GLP-1R [2] (read-out: Assay 1 EC50) came out at 9300 nM. On human GLP-1R [2], the Emax was determined as 100%.

As to `COCC1(Cn2c(CN3CCC(c4cccc(OCc5ccc(Cl)cc5F)n4)CC3)nc3ccc(C(=O)O)cc32)CCC1` [Example 11A-74, 2-[(4-{6-[(4-chloro-2-fluorobenzyl)oxy]pyridin-2-yl}piperidin-1-yl)methyl]-1-{[1-(methoxymethyl)cyclobutyl]methyl}-1H-benzimidazole-6-carboxylic acid], the EC50 on human GLP-1R [2] (read-out: Assay 1 EC50) is 560 nM. Further, the Emax at human GLP-1R [2] was 72%.

Regarding `COCCn1c(CN2CCN(c3cccc(OCc4ccc(Cl)cc4F)n3)CC23CC3)nc2ccc(C(=O)O)cc21` [Example 12A-03, 2-[(7-{6-[(4-chloro-2-fluorobenzyl)oxy]pyridin-2-yl}-4,7-diazaspiro[2.5]oct-4-yl)methyl]-1-(2-methoxyethyl)-1H-benzimidazole-6-carboxylic acid], the EC50 at human GLP-1R [2] (read-out: Assay 1 EC50) turned out to be 600 nM. The maximum response (Emax) on human GLP-1R [2] is 70%.

With `COCCn1c(CN2CCN(c3cccc(OCc4ccc(Cl)cc4F)n3)C[C@@H]2C2CC2)nc2ccc(C(=O)O)cc21` [Example 12A-04, 2-{[(2S)-4-{6-[(4-chloro-2-fluorobenzyl)oxy]pyridin-2-yl}-2-cyclopropylpiperazin-1-yl]methyl}-1-(2-methoxyethyl)-1H-benzimidazole-6-carboxylic acid], at human GLP-1R [2] (read-out: Assay 1 EC50), the concentration for a half-maximal effect (EC50) was 250 nM. At human GLP-1R [2], the Emax is 64%.

As to `COCCn1c(CN2CCN(c3cccc(OCc4ccc(Cl)cc4F)n3)C[C@@H]2C(C)C)nc2ccc(C(=O)O)cc21` [Example 12A-05, 2-{[(2S)-4-{6-[(4-chloro-2-fluorobenzyl)oxy]pyridin-2-yl}-2-(propan-2-yl)piperazin-1-yl]methyl}-1-(2-methoxyethyl)-1H-benzimidazole-6-carboxylic acid], the EC50 at human GLP-1R [2] (read-out: Assay 1 EC50) was 1300 nM. Moreover, the Emax on human GLP-1R [2] was 42%.

For `COCCn1c(CN2CCN(c3cccc(OCc4ccc(Cl)cc4F)n3)CC2(C)C)nc2ccc(C(=O)O)cc21` [Example 12A-06, 2-[(4-{6-[(4-chloro-2-fluorobenzyl)oxy]pyridin-2-yl}-2,2-dimethylpiperazin-1-yl)methyl]-1-(2-methoxyethyl)-1H-benzimidazole-6-carboxylic acid], at human GLP-1R [2] (read-out: Assay 1 EC50), the 50% effective concentration (EC50) came to 510 nM. Further, at human GLP-1R [2], the Emax was 64%.
